Experimental findings from PMC5766581, “NF-κB inducing kinase is a therapeutic target for systemic lupus erythematosus” (Nature Communications, 2018) are described below.

Entries after “also recorded” stand apart in the source; their conditions may differ.

One test deals with NZB/W F1 mice. The test is described as follows: rAdV-IFNα-accelerated NZB/W F1 lupus model, survival study. It is filed as in vivo, mouse. Here is the method: Age-matched (NZB x NZW) F1 mice were purchased from Jackson Laboratory. Fourteen to fifteen weeks old female NZB/W F1 mice were injected i.v. with 1.2 × 10^8 rAD5-CMV-IFNα (rAdV-IFNα) particles (Genentech) to accelerate disease[34],[69]. […] In efficacy studies, proteinuria and survival were tracked through day 84. A 4-week PD study was performed to measure cell subsets, serum Ig, chemokines, cytokines, and gene expression.
Kidneys were immersed in 10% neutral buffered formalin at ambient temperature for 24 h, then paraffin-embedded using routine methods. Four micron histologic sections were stained with Periodic acid–Schiff (PAS) for evaluation of glomerulonephritis and hematoxylin and eosin (H&E) for visual evaluation of interstitial inflammation by light microscopy. Scoring by the pathologist was performed in a blinded fashion. Glomerulonephritis severity scoring was on a 4-point semi-quantitative scale: “0” – normal or mild global lesions in <50% of glomeruli, “1”—global lesions in > 50% of glomeruli, <20% of which are severe (defined as >1 segment with <3 patent capillaries), “2”—global lesions in >50% of glomeruli, 20–80% of which are severe, and “3”— >80% of glomeruli with severe global lesions. Chronic pyelitis, cortical periarteritis, and tubulointerstitial nephritis severity was determined by blinded disease scoring. Severity scores for tubulointerstitial nephritis, periarteritis, and pyelitis were all on 4-point semiquantitative scales: “0”—no significant inflammation, “1”—sparse or focal inflammatory infiltrates, “2”—occasional moderately sized inflammatory infiltrates, and “3”—frequent large inflammatory infiltrates. Proteinuria measurements were done by dipstick (Multistix, Bayer Diagnostics). Protein concentration was assigned a proteinuria score with trace = […] = 1, 100 mg/dl = 2, >300 mg/dl = 4, and dead mice = 5.

For another test, the system named is FVB mice. Description: Imiquimod-induced FVB mouse lupus model. It is filed as in vivo. To be noted: 200 mg/kg P.O. BID; Imiquimod treated FVB mice. On the procedure:
Age-matched female FVB mice were purchased from Jackson Laboratory and randomized into experimental groups upon receipt. Ten-week-old female FVB mice were treated with 10 mg of 5% Imiquimod cream (Taro Pharmaceuticals, USA, Hawthorne, N.Y.) applied to the left ear (three doses per week for the duration of the study). […] Proteinuria and survival were tracked through day 91. Plasma PK measurement was done at day 85 prior to the end of the study.

In another test the target is T1, FAK (Homo sapiens, UniProt Q05397).
T1 construct: purchased Invitrogen / ThermoFisher SelectScreen
T1 sequence (Q05397 whole entry): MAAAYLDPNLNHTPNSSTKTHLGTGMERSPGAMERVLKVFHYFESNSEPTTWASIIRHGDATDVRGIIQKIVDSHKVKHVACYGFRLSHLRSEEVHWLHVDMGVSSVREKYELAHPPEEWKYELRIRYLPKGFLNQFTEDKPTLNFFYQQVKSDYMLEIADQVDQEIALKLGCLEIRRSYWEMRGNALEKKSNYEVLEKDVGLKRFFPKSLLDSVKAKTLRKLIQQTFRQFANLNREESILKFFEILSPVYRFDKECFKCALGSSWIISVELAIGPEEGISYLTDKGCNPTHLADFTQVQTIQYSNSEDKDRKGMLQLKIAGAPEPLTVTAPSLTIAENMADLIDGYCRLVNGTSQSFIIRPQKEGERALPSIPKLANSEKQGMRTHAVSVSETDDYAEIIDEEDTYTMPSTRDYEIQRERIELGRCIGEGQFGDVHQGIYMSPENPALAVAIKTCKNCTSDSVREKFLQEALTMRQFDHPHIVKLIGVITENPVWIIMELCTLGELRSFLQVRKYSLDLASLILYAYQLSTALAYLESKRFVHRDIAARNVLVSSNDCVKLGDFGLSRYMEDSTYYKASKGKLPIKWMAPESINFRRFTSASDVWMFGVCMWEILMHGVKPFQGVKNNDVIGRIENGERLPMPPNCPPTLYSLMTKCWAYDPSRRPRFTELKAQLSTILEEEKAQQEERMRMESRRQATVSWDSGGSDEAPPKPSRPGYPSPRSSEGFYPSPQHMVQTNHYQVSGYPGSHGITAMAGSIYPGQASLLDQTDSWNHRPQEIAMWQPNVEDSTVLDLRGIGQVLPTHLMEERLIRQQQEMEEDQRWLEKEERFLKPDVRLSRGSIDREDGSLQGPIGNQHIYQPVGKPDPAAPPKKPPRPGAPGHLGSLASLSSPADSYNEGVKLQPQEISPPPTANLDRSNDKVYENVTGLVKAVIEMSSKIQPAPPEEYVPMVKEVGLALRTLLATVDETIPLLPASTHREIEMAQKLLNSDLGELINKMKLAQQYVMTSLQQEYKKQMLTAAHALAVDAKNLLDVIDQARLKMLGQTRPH
The test is described as follows: SelectScreen kinase panel. It is filed as biochemical. The method in brief:
(§1)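 SelectScreen selectivity panel, vendor protocols per kinase: Z′-LYTE, Adapta, or LanthaScreen. Value = average % inhibition.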

In a further test the target is T2, SGK2 (Homo sapiens, UniProt Q9HBY8).
T2 construct: purchased Invitrogen / ThermoFisher SelectScreen
T2 sequence (Q9HBY8 whole entry): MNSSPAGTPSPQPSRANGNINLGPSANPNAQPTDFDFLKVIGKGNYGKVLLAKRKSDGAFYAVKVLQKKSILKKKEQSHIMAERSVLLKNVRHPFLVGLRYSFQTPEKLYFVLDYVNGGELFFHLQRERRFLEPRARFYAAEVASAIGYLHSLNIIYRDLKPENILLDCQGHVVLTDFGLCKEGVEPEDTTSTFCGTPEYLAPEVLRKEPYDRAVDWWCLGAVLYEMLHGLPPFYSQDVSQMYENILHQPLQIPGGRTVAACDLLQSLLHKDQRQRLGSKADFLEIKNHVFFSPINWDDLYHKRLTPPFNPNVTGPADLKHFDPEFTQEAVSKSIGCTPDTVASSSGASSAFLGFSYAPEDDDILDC
The test is described as follows: SelectScreen kinase panel. It is filed as biochemical. The method in brief:
as §1

In the next test the target is T3, MAPKAPK3 (Homo sapiens, UniProt Q16644).
T3 construct: purchased Invitrogen / ThermoFisher SelectScreen
T3 sequence (Q16644 whole entry): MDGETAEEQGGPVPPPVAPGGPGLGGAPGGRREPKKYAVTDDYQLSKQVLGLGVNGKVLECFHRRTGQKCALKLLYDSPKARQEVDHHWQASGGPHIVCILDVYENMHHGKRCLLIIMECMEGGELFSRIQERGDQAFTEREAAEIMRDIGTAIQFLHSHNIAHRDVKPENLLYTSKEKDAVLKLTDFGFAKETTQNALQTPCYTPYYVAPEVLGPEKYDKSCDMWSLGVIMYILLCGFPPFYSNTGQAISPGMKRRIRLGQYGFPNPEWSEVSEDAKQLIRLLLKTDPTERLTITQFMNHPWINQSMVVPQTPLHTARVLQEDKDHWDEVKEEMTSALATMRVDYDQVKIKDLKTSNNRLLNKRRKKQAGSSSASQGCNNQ
The test is described as follows: SelectScreen kinase panel. It counts as biochemical. A digest of the protocol: as §1

The next test addresses T4, EphA7 (Homo sapiens, UniProt Q15375).
T4 construct: purchased Invitrogen / ThermoFisher SelectScreen
The test is described as follows: SelectScreen kinase panel. It is filed as biochemical. A digest of the protocol:
as §1

A further test has as its target T5, Abl (Homo sapiens, UniProt P00519).
T5 construct: purchased Invitrogen / ThermoFisher SelectScreen
Description: SelectScreen kinase panel. It is filed as biochemical. The method in brief: as §1

The target in the next test is T6, ZIPK (Homo sapiens, UniProt O43293).
T6 construct: purchased Invitrogen / ThermoFisher SelectScreen
T6 sequence (O43293 whole entry): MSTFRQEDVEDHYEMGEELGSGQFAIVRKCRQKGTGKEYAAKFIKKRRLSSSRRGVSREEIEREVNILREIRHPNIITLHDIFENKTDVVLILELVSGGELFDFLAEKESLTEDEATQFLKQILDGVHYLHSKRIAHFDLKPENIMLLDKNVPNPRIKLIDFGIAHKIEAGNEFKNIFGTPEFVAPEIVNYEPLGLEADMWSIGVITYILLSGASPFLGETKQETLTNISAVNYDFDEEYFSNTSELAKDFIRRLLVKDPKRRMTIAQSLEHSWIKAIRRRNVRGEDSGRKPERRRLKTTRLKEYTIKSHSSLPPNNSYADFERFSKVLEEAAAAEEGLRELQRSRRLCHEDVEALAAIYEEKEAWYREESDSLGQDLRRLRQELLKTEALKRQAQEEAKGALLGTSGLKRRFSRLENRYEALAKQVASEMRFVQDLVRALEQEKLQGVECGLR
The test is described as follows: SelectScreen kinase panel. It is filed as biochemical. The method in brief:
as §1

The target of another test is T7, TrkA (Homo sapiens, UniProt P04629).
T7 construct: purchased Invitrogen / ThermoFisher SelectScreen
T7 sequence (P04629 33-796): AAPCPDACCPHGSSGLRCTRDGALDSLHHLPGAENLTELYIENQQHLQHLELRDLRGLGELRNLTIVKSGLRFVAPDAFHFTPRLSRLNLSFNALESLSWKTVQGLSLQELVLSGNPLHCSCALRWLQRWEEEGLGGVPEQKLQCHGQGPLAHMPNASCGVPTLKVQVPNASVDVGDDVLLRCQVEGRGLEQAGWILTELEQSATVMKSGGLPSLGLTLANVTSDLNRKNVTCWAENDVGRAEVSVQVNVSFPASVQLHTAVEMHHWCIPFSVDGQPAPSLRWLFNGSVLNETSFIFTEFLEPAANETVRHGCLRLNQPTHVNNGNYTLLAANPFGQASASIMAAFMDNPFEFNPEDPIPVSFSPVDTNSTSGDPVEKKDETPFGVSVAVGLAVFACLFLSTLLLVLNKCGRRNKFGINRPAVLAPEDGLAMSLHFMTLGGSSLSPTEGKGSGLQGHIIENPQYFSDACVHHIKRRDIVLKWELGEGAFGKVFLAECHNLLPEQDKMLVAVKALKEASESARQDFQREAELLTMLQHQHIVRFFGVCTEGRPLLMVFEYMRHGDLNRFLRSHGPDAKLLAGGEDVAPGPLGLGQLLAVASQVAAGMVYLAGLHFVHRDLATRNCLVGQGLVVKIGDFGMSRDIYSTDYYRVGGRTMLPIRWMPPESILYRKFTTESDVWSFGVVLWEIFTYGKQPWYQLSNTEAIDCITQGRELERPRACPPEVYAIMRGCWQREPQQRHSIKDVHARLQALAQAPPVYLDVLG
The test is described as follows: SelectScreen kinase panel. It counts as biochemical. The method in brief: as §1

For test [1], the system named is nuclear RelA (canonical NF-κB signaling). The test is described as follows: High content nuclear RelA imaging, TNF-stimulated HeLa cells. It is filed as cell-based, human. Here is the method:
The HeLa cell line was used to define the cellular selectivity of NIK inhibitors toward inhibition of classical vs. non-classical NF-κB signaling using high content cellular imaging assays. For the nuclear translocation assay p52 (non-canonical NF-κB signaling), HeLa cells were treated with different concentrations of compounds previously diluted in DMSO (final [DMSO] = 0.2% in all wells) in DMEM medium (10% FBS, 2 mM Glutamine) and then stimulated with 300 ng/mL of an anti-lymphotoxin beta receptor antibody for 4.5 h. In the REL-A nuclear translocation assay, HeLa cells were incubated with compounds for 4 h 50 min before stimulating them with 2 ng/mL TNF (R&D Systems) for 10 min. Cells were fixed with 4% paraformaldehyde, permeabilized by adding 0.1% Triton X-100 in phosphate buffered saline, and then are incubated with either 2 μg/mL anti-p52 antibody or 400 ng/mL anti-REL-A (p65) antibody. Finally, the cells are incubated with an Alexa488-labeled secondary antibody (Invitrogen) and DRAQ5 DNA stain (Biostatus). Imaging was carried out using an Opera reader (Perkin Elmer) and data were analyzed with Acapella software (Perkin Elmer). The p52 or REL-A translocation into the nucleus is quantified by the ratio of the nuclear to cytoplasmic signal intensity.

T5 sequence (P00519 whole entry): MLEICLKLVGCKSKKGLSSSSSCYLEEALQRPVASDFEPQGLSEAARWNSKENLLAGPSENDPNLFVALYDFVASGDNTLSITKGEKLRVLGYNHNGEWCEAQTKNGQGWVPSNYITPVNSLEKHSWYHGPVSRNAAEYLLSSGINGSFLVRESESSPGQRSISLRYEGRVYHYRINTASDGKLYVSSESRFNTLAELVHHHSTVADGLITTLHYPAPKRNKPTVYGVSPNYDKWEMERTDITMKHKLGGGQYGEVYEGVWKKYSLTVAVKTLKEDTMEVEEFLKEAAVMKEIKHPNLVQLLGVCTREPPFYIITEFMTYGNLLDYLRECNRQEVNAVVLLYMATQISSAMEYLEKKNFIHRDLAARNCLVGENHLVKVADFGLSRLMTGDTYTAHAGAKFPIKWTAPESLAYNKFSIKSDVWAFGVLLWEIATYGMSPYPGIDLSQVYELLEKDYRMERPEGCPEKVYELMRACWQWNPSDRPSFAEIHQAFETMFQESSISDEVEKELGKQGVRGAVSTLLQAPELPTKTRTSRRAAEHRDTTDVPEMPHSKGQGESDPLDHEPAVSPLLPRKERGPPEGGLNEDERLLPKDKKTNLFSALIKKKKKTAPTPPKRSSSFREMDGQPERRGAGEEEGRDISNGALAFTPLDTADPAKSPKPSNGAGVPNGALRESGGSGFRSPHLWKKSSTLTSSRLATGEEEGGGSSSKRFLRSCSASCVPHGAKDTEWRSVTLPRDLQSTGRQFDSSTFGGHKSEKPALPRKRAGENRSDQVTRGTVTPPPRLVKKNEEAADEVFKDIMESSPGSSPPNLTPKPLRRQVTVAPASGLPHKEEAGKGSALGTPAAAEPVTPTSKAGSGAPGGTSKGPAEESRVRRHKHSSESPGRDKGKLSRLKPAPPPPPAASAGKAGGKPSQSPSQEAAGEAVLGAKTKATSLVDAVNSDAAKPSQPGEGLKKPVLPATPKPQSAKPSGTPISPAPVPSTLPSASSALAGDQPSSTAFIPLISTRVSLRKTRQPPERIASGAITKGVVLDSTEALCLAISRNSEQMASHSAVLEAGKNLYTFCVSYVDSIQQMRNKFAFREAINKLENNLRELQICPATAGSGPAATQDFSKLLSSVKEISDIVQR

Regarding `COc1cc(C(N)=O)nc(-c2cccc(C#C[C@]3(O)CCN(C)C3=O)c2)c1` [NIK SMI1], in the test on NZB/W F1 mice (180 mg/kg BID P.O., 9 weeks), the reduction of mortality result is “about 50%”. In addition, in the test with NZB/W F1 mice (180 mg/kg, 12 h after the prior dose, based on PK sampling), the “inhibition of NIK at the time point of lowest exposure” value was “about 70%”. Besides, in the test with NZB/W F1 mice (9 weeks of treatment, AUC day 19-84), the proteinuria score entry is on record as “statistically significant reduction”. The survival entry in the test with NZB/W F1 mice (IFNα-accelerated NZB/W F1 mice) is “improved survival”; in the test on FVB mice, “efficacious; also recorded: improved survival”. Also, the inhibition at 1 µM against FAK is 10.5%; at SGK2, 9.5%; on MAPKAPK3, 1%; on EphA7, 5.1%; against Abl it was 9.5%; at ZIPK, -5.5%. Further, on TrkA, the inhibition at 1 µM came out at 2.5%. Besides, in test [1], the “effect on canonical signaling as measured by TNF alpha-induced nuclear relA levels” value is reported as “no effect”. Besides, the IC50 in test [1] (Homo sapiens, TNF induced) is more than 2000 nM.
